Results taken from patent publication US20080009511A1, “Cancer treatment with compounds inhibiting PKC alpha” (priority 2004, published 2008).

Tests used:
[1] = system: 3Y1 rat fibroblast cells overexpressing the epidermal growth factor receptor (EGFR); assay: Soft agar/cell transformation assay; type: cell-based; settings: 1 micromole with EGF (100 ng/ml), in contrast to EGF alone
From the text: 1×10^3 3Y1 rat fibroblast cells overexpressing the epidermal growth factor receptor (EGFR) were suspended in top agar (consisting of 20 percent calf serum, 0.38 percent agar and the remainder DMEM) and overlaid onto bottom agar (DMEM, 20 percent calf serum and 0.7 percent agar) as reported by Sementchenko et al., in Onocgen 17:2883-2888.

[2] = system: KB oral cancer cells; assay: Cell viability assay (trypan blue dye exclusion), viable cells counted at day 6; type: cell-based, human; settings: for Treated (cell number × 10^5): about 4×10^4 cells seeded, untreated 3.8 ± 0.4
Method: (§1) The following cancer cells were maintained in Dulbecco's modified Eagle medium (DMEM) supplemented with 10 percent bovine calf serum. Cells were seeded for 24 hours. Then they were treated with PKC inhibitors or left untreated. The cells were then collected periodically and evaluated using trypan blue dye exclusion to assess viability using the method described by C Y Chen, et al., in J. Biol. Chem. 273:16700-16709. Cultures containing about 4×10^4 cells were treated with 5 micromoles of Gö7874 (except that PC3 prostate cancer cells were treated with 10 micromoles) and the viable cells were counted at day 6. […] Cultures containing about 4×10^4 cells were treated with or without 10 micromoles of Gö6850 and the viable cells were counted at day 6. […] Cultures containing about 4×10^4 cells were treated with or without 10 micromoles of NGIC-I and the viable cells were counted at day 6. […] Cultures containing about 4×10^4 cells were treated with or without 10 micromoles of Ro31-7549 and the viable cells were counted at day 6. […] Cultures containing about 4×10^4 cells were treated with or without 10 micromoles of Ro31-8220 and the viable cells were counted at day 6. […] Cultures containing about 4×10^4 cells were treated with or without 10 micromoles of Ro31-8425 and the viable cells were counted at day 6. […] Cultures containing about 4×10^4 cells were treated with or without 10 micromoles of Ro31-0432 and the viable cells were counted at day 6.

[3] = system: U-937 lymphoma cells; assay: as above; type: cell-based, human; settings: 5 micromoles
Method: Cells were seeded for 24 hours. Then they were treated with PKC inhibitors or left untreated. The cells were then collected periodically and evaluated using trypan blue dye exclusion to assess viability using the method described by C Y Chen, et al., in J. Biol. Chem. 273:16700-16709. Cultures containing about 4×10^4 cells were treated with 5 micromoles of Gö7874 (except that PC3 prostate cancer cells were treated with 10 micromoles) and the viable cells were counted at day 6.

[4] = system: 3Y1 rat fibroblast cells overexpressing EGF receptors (3Y1-EGFR cells); assay: EGF-induced cell transformation (transformed morphology); type: cell-based; settings: 1 micromole; for cell apoptosis during co-treatment: co-treatment with 100 ng/ml EGF; for effect on EGF-induced transformed morphology: co-treatment with 100 ng/ml EGF for 48 hours
[5] = system: AGS human gastric cancer cells; assay: Cell viability assay (trypan blue dye exclusion), viable cells counted at day 6; type: cell-based; settings: for Treated (cell number × 10^5): about 4×10^4 cells seeded, untreated 2.4 ± 0.3
Method: as §1

[6] = system: PANC-1 human pancreatic carcinoma cells; assay: as above; type: cell-based; settings: for Treated (cell number × 10^5): about 4×10^4 cells seeded, untreated 2.1 ± 0.3
Method: as §1

[7] = system: PC3 human prostate cancer cells; assay: as above; type: cell-based; settings: 10 micromoles; for Treated (cell number × 10^5): about 4×10^4 cells seeded, untreated 7.1 ± 0.3
Method: as §1

[8] = system: U251 human glioma cells; assay: as above; type: cell-based; settings: for Treated (cell number × 10^5): about 4×10^4 cells seeded, untreated 9.6 ± 0.5
Method: as §1

[9] = system: MDA-MB-468 human breast cancer cells; assay: as above; type: cell-based; settings: for Treated (cell number × 10^5): about 4×10^4 cells seeded, untreated 6.1 ± 0.4
Method: as §1

[10] = system: A431 human epidermoid carcinoma cells; assay: as above; type: cell-based; settings: for Treated (cell number × 10^5): about 4×10^4 cells seeded, untreated 5.4 ± 0.4
Method: as §1

[11] = system: NBT-II human bladder cancer cells; assay: as above; type: cell-based; settings: for Treated (cell number × 10^5): about 4×10^4 cells seeded, untreated 2.9 ± 0.4
Method: as §1

[12] = system: Jurkat cells (a human acute T-cell leukemia cell line); assay: as above; type: cell-based; settings: for Treated (cell number × 10^5): about 4×10^4 cells seeded, untreated 8.8 ± 0.4
Method: as §1

[13] = system: HepG2 human liver cancer cells; assay: as above; type: cell-based; settings: for Treated (cell number × 10^5): about 4×10^4 cells seeded, untreated 4.2 ± 0.4
Method: as §1

[14] = system: H460 human lung cancer cells; assay: as above; type: cell-based; settings: for Treated (cell number × 10^5): about 4×10^4 cells seeded, untreated 2.4 ± 0.2
Method: as §1

[15] = system: Hela human cervical cancer cells; assay: as above; type: cell-based; settings: for Treated (cell number × 10^5): about 4×10^4 cells seeded, untreated 3.4 ± 0.4
Method: as §1

[16] = system: HT29 human colon cancer cells; assay: as above; type: cell-based; settings: for Treated (cell number × 10^5): about 4×10^4 cells seeded, untreated 3.8 ± 0.4
Method: as §1

[17] = system: human cancer cells; assay: Cell viability assay, summary over the panel of cancer cells; type: cell-based; settings: 10 micromoles; day 6; cell lines not named as going to apoptosis
Method: The following cancer cells were maintained in Dulbecco's modified Eagle medium (DMEM) supplemented with 10 percent bovine calf serum. Cells were seeded for 24 hours. Then they were treated with PKC inhibitors or left untreated. The cells were then collected periodically and evaluated using trypan blue dye exclusion to assess viability using the method described by C Y Chen, et al., in J. Biol. Chem. 273:16700-16709. Cultures containing about 4×10^4 cells were treated with or without 10 micromoles of Gö6850 and the viable cells were counted at day 6. […] Cultures containing about 4×10^4 cells were treated with or without 10 micromoles of NGIC-I and the viable cells were counted at day 6. […] Cultures containing about 4×10^4 cells were treated with or without 10 micromoles of Ro31-7549 and the viable cells were counted at day 6. […] Cultures containing about 4×10^4 cells were treated with or without 10 micromoles of Ro31-8220 and the viable cells were counted at day 6. […] Cultures containing about 4×10^4 cells were treated with or without 10 micromoles of Ro31-8425 and the viable cells were counted at day 6. […] Cultures containing about 4×10^4 cells were treated with or without 10 micromoles of Ro31-0432 and the viable cells were counted at day 6.

[18] = 10 micromoles, growth vs untreated

## COc1ccc2c(c1)c1c3c(c4c5ccccc5n(C)c4c1n2CC(O)CN(C)C)C(=O)NC3=O.Cl (centres unmarked) [Gö7874, 5,7(6H)-dione,13-[3-(dimethylamino)-2-hydroxypropyl]-12,13-dihydro-3-methoxy-12-methyl-5H-Indolo[2,3-a]pyrrolo[3,4-c]carbazole, monohydrochloride]
[1]
  reduction of colony number in soft agar: 82%
[2]; 5 micromoles
  cells that went to apoptosis after treatment: all
  Treated (cell number × 10^5): 0 × 10^5
[3]
  cells that went to apoptosis after treatment: all
[4]
  cell apoptosis during co-treatment: without detected cell apoptosis
  effect on EGF-induced transformed morphology: partially blocked
[5]; 5 micromoles
  cells that went to apoptosis after treatment: all
  inhibition of cell proliferation: More than 60%
  Treated (cell number × 10^5): 0.8 × 10^5
[6]; 5 micromoles
  cells that went to apoptosis after treatment: all
  Treated (cell number × 10^5): 0 × 10^5
[7]
  cells that went to apoptosis after treatment: all
  Treated (cell number × 10^5): 0 × 10^5
[8]; 5 micromoles
  cells that went to apoptosis after treatment: all
  Treated (cell number × 10^5): 0 × 10^5
[9]; 5 micromoles
  cells that went to apoptosis after treatment: all
  Treated (cell number × 10^5): 0 × 10^5
[10]; 5 micromoles
  cells that went to apoptosis after treatment: all
  Treated (cell number × 10^5): 0 × 10^5
[11]; 5 micromoles
  Treated (cell number × 10^5): 0 × 10^5
[12]; 5 micromoles
  originally seeded cells survived (fraction, words): less than one third
  Treated (cell number × 10^5): 0.1 × 10^5
[13]; 5 micromoles
  cells that went to apoptosis after treatment: all
  Treated (cell number × 10^5): 0 × 10^5
[14]; 5 micromoles
  cells that went to apoptosis after treatment: all
  Treated (cell number × 10^5): 0 × 10^5
[15]; 5 micromoles
  cells that went to apoptosis after treatment: all
  Treated (cell number × 10^5): 0 × 10^5
[16]; 5 micromoles
  cells that went to apoptosis after treatment: all
  Treated (cell number × 10^5): 0 × 10^5

## Cl.Cn1cc(C2=C(c3c4n(c5ccccc35)CCC(CN)C4)C(=O)NC2=O)c2ccccc21 (centres unmarked) [Ro31-8425]
[1]
  reduction of colony number in soft agar: 72%
[17]
  inhibition of growth in contrast to untreated cells, range over the other treated cancer cells: 52-90%
[2]; 10 micromoles
  cells that went to apoptosis upon treatment: all
  Treated (cell number × 10^5): 0 × 10^5
[2]; [18]
  % inhibiton: * (indicates the inhibitor causes significant cell death, and cell number is less than originally seeded cell number.)
[4]
  cell apoptosis during co-treatment: without detected cell apoptosis
  effect on EGF-induced transformed morphology: partially blocked
[5]; 10 micromoles
  cells that went to apoptosis upon treatment: all
  Treated (cell number × 10^5): 0 × 10^5
[5]; [18]
  % inhibiton: * (indicates the inhibitor causes significant cell death, and cell number is less than originally seeded cell number.)
[6]; 10 micromoles
  cells that went to apoptosis upon treatment: all
  Treated (cell number × 10^5): 0 × 10^5
[6]; [18]
  % inhibiton: * (indicates the inhibitor causes significant cell death, and cell number is less than originally seeded cell number.)
[7]
  Treated (cell number × 10^5): 3 × 10^5
[7]; growth vs untreated
  % inhibiton: 53%
[8]; 10 micromoles
  Treated (cell number × 10^5): 1.4 × 10^5
[8]; [18]
  % inhibiton: 85%
[9]; 10 micromoles
  cells that went to apoptosis upon treatment: significant number
  Treated (cell number × 10^5): 0.1 ± 0.05 × 10^5
[9]; [18]
  % inhibiton: * (indicates the inhibitor causes significant cell death, and cell number is less than originally seeded cell number.)
[10]; 10 micromoles
  Treated (cell number × 10^5): 2.6 × 10^5
[10]; [18]
  % inhibiton: 52%
[11]; 10 micromoles
  cells that went to apoptosis upon treatment: significant number
  Treated (cell number × 10^5): 0.3 × 10^5
[11]; [18]
  % inhibiton: * (indicates the inhibitor causes significant cell death, and cell number is less than originally seeded cell number.)
[12]; 10 micromoles
  cells that went to apoptosis upon treatment: significant number
  Treated (cell number × 10^5): 0.3 × 10^5
[12]; [18]
  % inhibiton: * (indicates the inhibitor causes significant cell death, and cell number is less than originally seeded cell number.)
[13]; 10 micromoles
  Treated (cell number × 10^5): 0.4 × 10^5
[13]; [18]
  % inhibiton: 90%
[14]; 10 micromoles
  cells that went to apoptosis upon treatment: all
  Treated (cell number × 10^5): 0 × 10^5
[14]; [18]
  % inhibiton: * (indicates the inhibitor causes significant cell death, and cell number is less than originally seeded cell number.)
[15]; 10 micromoles
  cells that went to apoptosis upon treatment: all
  Treated (cell number × 10^5): 0 × 10^5
[15]; [18]
  % inhibiton: * (indicates the inhibitor causes significant cell death, and cell number is less than originally seeded cell number.)
[16]; 10 micromoles
  Treated (cell number × 10^5): 0.6 × 10^5
[16]; [18]
  % inhibiton: 85%
